From publication PMC5271370, “A High-Content Assay Enables the Automated Screening and Identification of Small Molecules with Specific ALDH1A1-Inhibitory Activity” (PLoS ONE, 2017)
Where two headings read alike, the source gives them in different places.

Assays:
Human ALDH2 = biological target: T1, Human ALDH2 (Homo sapiens, UniProt P05091); test: 1,536-well enzymatic assay (NADH fluorescence), ALDH2; type: biochemical
T1 construct: purchased Abcam ab87415
T1 sequence (P05091 18-517): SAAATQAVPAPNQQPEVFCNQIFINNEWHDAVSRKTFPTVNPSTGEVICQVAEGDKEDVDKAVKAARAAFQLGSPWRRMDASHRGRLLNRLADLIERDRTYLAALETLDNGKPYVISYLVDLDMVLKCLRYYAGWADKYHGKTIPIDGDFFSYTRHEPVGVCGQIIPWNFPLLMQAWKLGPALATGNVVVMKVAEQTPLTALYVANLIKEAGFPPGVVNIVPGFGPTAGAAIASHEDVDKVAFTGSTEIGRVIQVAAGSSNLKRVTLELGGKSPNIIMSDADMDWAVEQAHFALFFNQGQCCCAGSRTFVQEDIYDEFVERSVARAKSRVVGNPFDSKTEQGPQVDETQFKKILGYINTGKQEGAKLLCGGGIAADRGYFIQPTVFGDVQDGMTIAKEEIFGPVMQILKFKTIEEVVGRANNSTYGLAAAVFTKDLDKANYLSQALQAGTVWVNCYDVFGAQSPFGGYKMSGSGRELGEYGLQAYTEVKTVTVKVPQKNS
From the text: (§1) To validate our optimized assay, we assembled a set of 20 previously reported ALDH inhibitors, with varying degrees of target specificity (Table 1 and S4 Fig). […] Briefly, the assay measures the dehydrogenase activity of recombinant human ALDH1A1, ALDH1A2, ALDH1A3, ALDH2 or ALDH3A1 using NAD(P)^+ and either propionaldehyde or benzaldehyde as substrates. An orthogonal resorufin-based assay format was also run with isolated ALDH1A1 to rule out potential false positives due to intrinsic compound fluorescence.
(§2) Human ALDH1A1 and ALDH3A1 were expressed and purified as described elsewhere. Human ALDH2 was purchased from Abcam (ab87415). Human ALDH1A2 and ALDH1A3 were purchased from MyBioSource (MBS1005929; San Diego, CA) and ThermoFisher (11636H07E50), respectively. The inhibitory activity of compounds against ALDHs was measured according to protocols described previously. Briefly, 3 μL of enzyme (final concentrations of 20 nM for ALDH1A1, 50 nM for ALDH1A2, 50 nM for ALDH1A3, 75 nM for ALDH2 and 5 nM for ALDH3A1) in assay buffer (100 mM HEPES pH 7.5 with 0.01% Tween 20) were dispensed into a 1,536-well solid-bottom black plate (Greiner Bio One, Monroe, NC). […] Samples were incubated (room temperature, protected from light) for 15 minutes followed by a 1 μL substrate addition of NAD^+ and Propionaldehyde (final concentrations of 1 mM and 80 μM, respectively) for ALDH1A1, 1A2, 1A3, and ALDH2 or NADP^+ and benzaldehyde (final concentrations of 1 mM and 200 μM, respectively) for ALDH3A1. Plates were centrifuged at 1,000 rpm for 15 seconds, then read in kinetic mode on a ViewLux High-throughput CCD imager (PerkinElmer, Waltham, MA) equipped with standard UV fluorescence optics (340 nm excitation, 450 nm emission) for 5 (ALDH1A1, ALDH1A2, ALDH2, ALDH3A1) or 30 (ALDH1A3) minutes. The change in fluorescence intensity over the 5- or 30-minute reaction period was normalized against no-inhibitor and no-enzyme controls and the resulting percent inhibition data were fitted to a 4-parameter Hill equation. Bay-11 7085 was used as intraplate control. To account for artifacts due to intrinsic compound fluorescence in the above spectrum, compounds were also tested in an orthogonal resorufin assay format with optics of excitation 525 nm/emission 598 nm as described before. The same parameters as the NADH assay were used for the resorufin assay, with the addition of (final) 133 μg/mL diaphorase and 37 μM resazurin to the assay solution. Same controls were used in both formats.

Human ALDH1A1 = biological target: T2, Human ALDH1A1 (Homo sapiens, UniProt P00352); test: 1,536-well enzymatic assay (NADH fluorescence), ALDH1A1; type: biochemical
T2 construct: made in house
T2 sequence (P00352 1-501): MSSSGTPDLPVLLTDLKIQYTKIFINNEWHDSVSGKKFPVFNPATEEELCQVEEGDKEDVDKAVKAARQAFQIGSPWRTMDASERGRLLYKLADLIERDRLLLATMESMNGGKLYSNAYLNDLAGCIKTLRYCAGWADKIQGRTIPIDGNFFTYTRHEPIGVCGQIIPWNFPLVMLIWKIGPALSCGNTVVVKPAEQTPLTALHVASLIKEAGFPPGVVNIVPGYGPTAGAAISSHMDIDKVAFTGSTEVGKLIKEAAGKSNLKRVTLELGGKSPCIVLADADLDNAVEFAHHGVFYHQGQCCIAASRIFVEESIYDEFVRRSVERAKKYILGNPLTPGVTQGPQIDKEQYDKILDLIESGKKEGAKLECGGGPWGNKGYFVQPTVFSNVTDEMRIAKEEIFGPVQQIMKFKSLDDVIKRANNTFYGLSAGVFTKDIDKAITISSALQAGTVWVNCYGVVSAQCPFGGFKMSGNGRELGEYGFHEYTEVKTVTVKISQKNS
From the text: as §1, §2

[1] = test system: breast cancer cells that express ALDH1A3; design: method as in PMID 27592281; settings: flow cytometry, at concentrations >10 μM; cited from earlier work
ALDH3A1 = settings: reported ALDH target 3A1; read-out: Reported Biochemical IC50, ALDH3A1; cited from earlier work
ALDH1A1 = settings: reported ALDH target 1A1; read-out: Reported Biochemical IC50, ALDH1A1; cited from earlier work
Human ALDH3A1 = biological target: T3, Human ALDH3A1 (Homo sapiens, UniProt P30838); test: 1,536-well enzymatic assay (NADPH fluorescence), ALDH3A1; type: biochemical
T3 construct: made in house
T3 sequence (P30838 1-453): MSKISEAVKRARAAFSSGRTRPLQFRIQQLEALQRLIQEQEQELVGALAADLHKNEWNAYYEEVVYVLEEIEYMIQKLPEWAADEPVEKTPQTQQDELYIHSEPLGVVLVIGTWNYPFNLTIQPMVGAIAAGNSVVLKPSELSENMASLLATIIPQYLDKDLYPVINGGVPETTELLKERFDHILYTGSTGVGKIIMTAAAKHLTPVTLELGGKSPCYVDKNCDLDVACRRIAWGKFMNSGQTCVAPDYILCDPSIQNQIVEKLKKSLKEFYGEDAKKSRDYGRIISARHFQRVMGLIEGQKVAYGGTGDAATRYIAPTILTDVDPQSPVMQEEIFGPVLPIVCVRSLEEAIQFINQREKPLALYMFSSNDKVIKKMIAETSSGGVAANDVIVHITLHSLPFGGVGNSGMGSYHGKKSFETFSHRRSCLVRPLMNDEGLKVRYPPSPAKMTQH
From the text: as §1, §2

ALDH2 = settings: reported ALDH target 2; read-out: Reported Biochemical IC50, ALDH2; cited from earlier work
[2] = validation set, 75 nM enzyme, NAD+ and propionaldehyde, read-out: Biochemical IC50 ALDH2
[3] = validation set, 20 nM enzyme, NAD+ and propionaldehyde, read-out: Biochemical IC50 ALDH1A1
[4] = validation set, 5 nM enzyme, NADP+ and benzaldehyde, read-out: Biochemical IC50 ALDH3A1
[5] = hits of dual cell-based screen (Table 2), read-out: Biochemical IC50 ALDH1A1

Row | Molecule | IC50 (Human ALDH2; [2]) [µM] | IC50 (Human ALDH1A1; [3]) [µM] | IC50 (ALDH1A1) [µM] | IC50 (Human ALDH3A1; [4]) [µM] | IC50 (ALDH2) [µM] | further results
1 | CC(C)=CCCC(C)=CC=O (mixture of isomers) [Citral] | 4.28 | 10.8 |  |  |  | Reduction of ALDEFLUOR fluorescence [1]: significantly reduced ALDEFLUOR fluorescence
2 | COc1ccc(C(=O)CCN(C)C)cc1F [Aldi-2] | 0.1 | 0.15 | 2.5 | 0.04 | 6.4 | IC50 (ALDH3A1): 1.9 µM
3 | CC(C)(C)c1ccc(S(=O)(=O)/C=C/C#N)cc1 [Bay-11-7085] | 0.05 | 0.09 | 0.074 | 0.54 | 0.034 | IC50 (ALDH3A1): 0.1 µM
4 | Cc1nc2ccccc2n1S(=O)(=O)c1ccc(F)cc1 [CB7] | 19.1 |  |  |  |  | 
5 | CCOc1ccc(NCC(=O)Nc2ccc(Cl)cc2C)cc1 [CID 725345] | 2.15 | 0.77 | 3.5 | 5.39 |  | 
6 | COc1cccc2cc(C(=O)CC3(O)C(=O)N(Cc4ccccc4)c4ccccc43)c(=O)oc12 (stereo not drawn) [CID 2929292] | 9.59 | 0.29 | 0.09 | 21.5 |  | 
7 | CCN(CC)c1ccc(C=O)cc1 [DEAB, 4-N,N-diethylaminobenzaldehyde] |  |  |  | 6.05 | 0.16 | Reduction of ALDEFLUOR fluorescence [1]: significantly reduced ALDEFLUOR fluorescence
8 | O=c1c(-c2ccc(O)cc2)coc2cc(O[C@@H]3O[C@H](CO)[C@@H](O)[C@H](O)[C@H]3O)ccc12 [Daidzin] |  |  |  |  | 0.29 | 
9 | CCN(CC)C(=S)SSC(=S)N(CC)CC [Disulfiram] |  |  | 0.15 | 1.91 |  | 
10 | Cc1cc2c(C(C)C)c(O)c(O)c(C=O)c2c(O)c1-c1c(C)cc2c(C(C)C)c(O)c(O)c(C=O)c2c1O [Gossypol] |  |  | 75 |  |  | IC50 (Human ALDH2): 24.1 µM; IC50 (Human ALDH1A1; Biochemical IC50 ALDH1A1, validation set, 20 nM enzyme, NAD+ and propionaldehyde): 25.6 µM; IC50 (Human ALDH3A1): 27 µM
11 | Nc1ccccc1C(=O)CC(N)C(=O)O (stereo not drawn) [Kynurenine] |  | 40.5 |  |  |  | 
12 | C[S+](=O)([O-])c1ccc(Cn2c3c(c4cc(F)cc(F)c42)CCCC3CC(=O)O)cc1 [L-670596] |  |  |  |  |  | IC50 (Human ALDH1A1; [5]): 0.25 µM
13 | CC(C)N(C(=O)CCl)c1ccccc1 [Propachlor] |  |  |  |  |  | IC50 (Human ALDH2; hits of dual cell-based screen (Table 2), read-out: Biochemical IC50 ALDH2): 12.6 µM; IC50 (Human ALDH1A1; [5]): 0.01 µM; IC50 (Human ALDH3A1; hits of dual cell-based screen (Table 2), read-out: Biochemical IC50 ALDH3A1): 50.1 µM
14 | O=C1Nc2ccccc2C1=O [indoline-2,3-dione] | 21.5 | 0.01 | 0.02 | 2.41 |  | 
15 | CVT-10216 | 1.21 | 19.1 | 1.3 | 17.1 | 0.029 | 
